According to patent publication US20110123670A1, “COMESTIBLE PRODUCTS” (priority 2007, published 2011):

Columns and labels:
[1] = Determination of cooling effect: drop in temperature on dissolving sweetener powder in distilled water at 37° C.; type: physicochemical; settings: cooling effect of sweeteners, tested in duplicate, mean
Experimental: 150 g of sweetener powder was dissolved in 50 ml of distilled water at 37° C. with stirring. The drop in temperature was measured after 20 seconds than a further 50 ml of distilled water added and the temperature measured after a further 20 seconds. This step was repeated […] to a total volume of water of 200 ml. All samples were tested in duplicate and the result derived from the mean of the values obtained. The repeated addition of water was intended to mimic the conditions in the mouth, where more saliva would be produced as chewing of the comestible progresses. As a result, the cooling effect is indicative of the cooling effect that would be observed in the mouth upon dissolution of the sweetener during consumption.

[2] = test system: panel of 10-12 trained assessors; experiment: Determination of salivation effect: Quantitative Descriptive Analysis, Time-Intensity measurement of salivating mouthfeel; type: in vivo; settings: for Increase Angle (°) / Time to Maximum Salivatory Effect / Area under Curve / Intensity at Maximum: salivating effect, chewy confectionary with 46.0 wt % test sweetener, 90 second test period, mean of at least 13 repetitions; for Area under Curve / Intensity at Maximum: relative values
Description: (§1) Quantitative Descriptive Analysis was used to determine the salivation effect of the invention. Seven samples of confectionary were tasted by a panel of 10-12 trained assessors using the technique of Time-Intensity measurement. The samples differed only in the sweetener component of the product.
(§2) This technique involves the testing of the confectionary sample in a sensory booth. The booth contained a computer equipped with software which allowed the panellist to record the perceived level of the mouth-watering sensation with time. Each assessor measured the perceived intensity of salivating mouthfeel at 1 second intervals over a time period of 90 seconds for each sample. This was achieved by initiating a timer within the software as the sample was placed in the mouth. Over the subsequent 90 second period the position of a marker on a linear slide scale was adjusted according to the perceived level of salivation. The data thus obtained was then processed to produce an analysis curve (intensity of effect versus time). The assessment was repeated multiple times (multiple assessors were used and at least three repetitions per assessor) and the result derived from the mean of the values obtained. The parameters determined were as follows: • Time to maximum salivatory effect, the time taken in seconds for the sample to reach its maximum intensity, a short time being indicative of the desired rapid inception of mouth-watering; • Intensity of salivation at maximum, the highest point in the curve as recorded by each assessor, a high intensity being generally preferred; • Area under the analysis curve, the larger this area the greater the total salivation over the 90 second test period; and • Increase angle, the angle in degrees of ascent from the first recorded value to the maximum intensity, a greater increase angle on the curve illustrates which samples have the greatest increase in salivation per unit time.
A series of tests were carried out to determine the mouth-watering effect and cooling effect derived from each of a range of sweeteners. The sweeteners tested were sugar (sucrose), erythritol, isomaltulose, trehalose, galactose, dextrose monohydrate and xylitol. Conventional methods were used to prepare this candy chew.

[3] = test system: panel of 10-12 trained assessors; experiment: Quantitative Descriptive Analysis of cooling effect (temperature decrease in the nose and mouth); type: in vivo; settings: mean of at least 10 repetitions; for Increase Angle (°) / Area under Curve / Intensity at Maximum: cooling effect; for Area under Curve / Intensity at Maximum: relative values; for Time to maximum cooling effect: table of cooling effect parameters
Description: as §1, §2
In addition, the Quantitative Descriptive Analysis as described above with regard to the evaluation of salivation was applied to determine the time to maximum cooling effect, the intensity of cooling at maximum, the area under the analysis curve and the increase angle. Cooling was assessed in terms of the temperature decrease in the nose and mouth, at the time of drawing air into the mouth. As with the determination of salivation using this technique, for effective cooling, a larger value is desirable for all parameters except the time to maximum cooling.

[4] = Studies by the applicant on galactose in sports drinks; type: in vivo; settings: compared with glucose

Structure (SMILES)	Magnitude of reduction in temperature at T = 90 seconds (° C.) [1] [°C]	Increase Angle (°) [2] [°]	Time to Maximum Salivatory Effect [2] [s]	Area under Curve [2]	Intensity at Maximum [2]	Increase Angle (°) [3] [°]	Area under Curve [3]	Intensity at Maximum [3]	Time to maximum cooling effect [3] [s]	incidence of hypoglycaemia [4]	overall sporting performance [4]	mouth-watering effect relative to that observed through the use of sugar ([2]; at the 90 second interval, FIG. 1)
OC[C@@H](O)[C@H](O)[C@@H](O)CO [Xylitol, xylitol]	26.0	39.3	70.3	2874	53.1	46	2457	44.7	64.5			
OC[C@@H](O)[C@@H](O)[C@H](O)[C@H](O)CO [Mannitol]	13.0											
OC[C@@H](O)[C@@H](O[C@H]1O[C@H](CO)[C@@H](O)[C@H](O)[C@H]1O)[C@H](O)[C@@H](O)CO [Maltitol]	16.5											
O.O=C[C@H](O)[C@@H](O)[C@H](O)[C@H](O)CO [Dextrose Monohydrate, dextrose monohydrate]	14.5	38	76.7	2306	52.1	36.5	663	24	81.9			
OC[C@H]1O[C@@](CO)(O[C@H]2O[C@H](CO)[C@@H](O)[C@H](O)[C@H]2O)[C@@H](O)[C@@H]1O [Sugar, sucrose]	13.5	35.1	58.9	1673	28.6							
OC[C@@H](O)[C@@H](O)CO [Erythritol, erythritol]		51.8	64.8	4079	73	81.5	3431	59.9	63.5			
OC[C@H]1O[C@H](OC[C@H]2OC(O)(CO)[C@@H](O)[C@@H]2O)[C@H](O)[C@@H](O)[C@@H]1O (some centres unmarked) [Isomaltulose, isomaltulose]		31.1	65.7	1898	34.3							
OC[C@H]1O[C@H](O[C@H]2O[C@H](CO)[C@@H](O)[C@H](O)[C@H]2O)[C@H](O)[C@@H](O)[C@@H]1O [Trehalose, trehalose]		35.3	66.5	2253	43							
O=C[C@H](O)[C@@H](O)[C@@H](O)[C@H](O)CO [Galactose, galactose]	11.0	51.5	62	3561	64.9	39.3	725	14.6	57.1	lower	increased	approximately 2.5 times
